Source: patent publication US7465718B2, “Ansamycins having improved pharmacological and biological properties” (Conforma Therapeutics Corporation, priority 2002, dated 2008)

Tests used:
rHsp90 (low affinity) = test: Biotin-geldanamycin competition binding, purified native HSP90 protein (rHsp90, low affinity); conditions: read-out: rHsp90 (low affinity) IC50 nM; inhibition of biotin-GM binding to purified HSP90, 4° C.
[1] = system: HSP90 (cell lysate, high affinity); test: Biotin-geldanamycin competition binding, HSP90 in cell lysate (high affinity); conditions: for ratio: rHsp90 (low affinity) IC50 over lysate (high affinity) IC50; for IC50: read-out: Lysate (high affinity) IC50 nM, inhibition of biotin-GM binding to HSP90 in cell lysate, 4° C.
HSP90 (bis-ANS treated) = test: Biotin-geldanamycin competition binding, bis-ANS treated HSP90
Her-2 = test: HER2 inhibition assay (Her-2 degradation in MCF7 cells, flow cytometry); type: cell-based; conditions: read-out: HER-2 degradation (IC50 nM)
Method: MCF7 cells are seeded in 24 well plates at a density of approximately 30,000 cells/well and allowed to grow for 16 hours in DMEM supplemented with 10% FBS. Drug is then added at a concentration range of 100 uM to 0.01 uM. Cells are incubated for an additional 24. […] 10,000 events were collected per sample. A fluorescence histogram was generated and the mean fluorescence intensity (mfi) of each sample was determined using Cellquest software. The background was defined as the mfi generated from cells incubated with control IgG, and was subtracted from each sample stained with the HER-2/neu Ab. Percent degradation of Her-2 was calculated as follows: % Her-2 degradation=(mfi HER-2 sample)/(mfi HER-2 untreated cells)×100 Water Solubility Studies

HIV-1ROJO = test: Anti-HIV PBMC assay (reverse transcriptase activity in supernatant); conditions: for TI (therapeutic index, TC50/IC50): HIV-1ROJO in PBMCs; for IC50: read-out: IC50 (μM) (50% inhibition of virus replication), HIV-1ROJO in fresh human PBMCs, 7 days
[2] = Water solubility studies (salts dissolved in water at room temperature); type: physicochemical; conditions: thermodynamic from solid, HCl salt, read-out: Solubility of the HCl salt in H2O
Method: Various salts were prepared as described in the example section and dissolved in water at room temperature.

[3] = MTS assay to measure cytotoxicity of PBMC; type: cell-based, human; conditions: human, PBMC, PBMCs without virus, read-out: TC50 (μM) (50% cytotoxicity)
Method: PBMC's in 96 well plates that were treated with compounds (without virus) were assayed for cell viability and compound toxicity using an MTS assay (CellTiter 96 Aqueous Non-Radioactivity Cell Proliferation Assay, Promega, Madison; Wis.).

SKOV-3 ovarian xenograft = SKOV-3 ovarian xenograft model; type: in vivo; conditions: tumors 200 mm3 before commencement of treatment
Text: Compounds have also been tested in HER-2 over-expressing tumor models such as BT474 breast and SKOV-3 ovarian carcinoma A therapy experiment with SKOV-3 is shown in FIG. 6. The treatment, doses, and schedule were the same as used in the A549 and MDA435 experiments. In this case, the tumors were allowed to become established and grow to a relatively large size (200 mm3) before commencement of treatment.

COC1/C=C\C=C(/C)C(=O)NC2=CC(=O)C(NC(=O)c3cc(C)nn3C(C)(C)C)=C(CC(C)CC(OC)C(O)C(C)/C=C(\C)C1OC(N)=O)C2=O (stereo not shown) [Compound #561, 17-(1-t-butyl-3-methyl-1H-pyrazole-5-carbonyl-amino)-geldanamycin]
melting point: 216 to 218 °C

COC1/C=C\C=C(/C)C(=O)NC2=CC(=O)C(NC(=O)c3ccccn3)=C(CC(C)CC(OC)C(O)C(C)/C=C(\C)C1OC(N)=O)C2=O (stereo not shown) [Compound #529, 17-picolinoyl-aminogeldanamycin]
melting point: 195 to 197 °C
IC50 (rHsp90 (low affinity)): 1000 nM
ratio [1]: 67
IC50 [1]: 15 nM

CO/N=C1/[C@@H](OC)C[C@H](C)CC2=C(NC(=O)c3ccccc3)C(=O)C=C(NC(=O)/C(C)=C/C=C\[C@H](OC)[C@@H](OC(N)=O)/C(C)=C/[C@@H]1C)C2=O (stereo in doubt) [Compound #1012]
IC50 (HSP90 (bis-ANS treated)): 6 µM

COC1C=CC=C(C)C(=O)NC2=CC(=O)C(NCCCN(C)CCCNC3=C4CC(C)CC(OC)C(O)C(C)C=C(C)C(OC(N)=O)C(OC)C=CC=C(C)C(=O)NC(=CC3=O)C4=O)=C(CC(C)CC(OC)C(O)C(C)C=C(C)C1OC(N)=O)C2=O (stereo not shown) [Compound #208]
IC50 (Her-2): 11 nM
TI (therapeutic index, TC50/IC50) (HIV-1ROJO): 38.6
IC50 (HIV-1ROJO): 0.007 µM
melting point: 153 °C (dec.)
solubility [2]: ≥ 20000 µg/mL
CC50 [3]: 0.27 µM

COc1ccccc1C1=C2CC(C)CC(OC)C(O)C(C)/C=C(\C)C(OC(N)=O)C(OC)/C=C\C=C(/C)C(=O)NC(=CC1=O)C2=O (stereo not shown) [Compound #212, 17-(2-methoxy-phenyl)-geldanamycin]
IC50 (Her-2): 10 nM
solubility [2]: < 10 µg/mL

CO[C@H]1/C=C\C=C(/C)C(=O)NC2=CC(=O)C(NC(=O)c3ccccc3)=C(C[C@@H](C)C[C@H](OC)[C@@H](OC(=O)CBr)[C@@H](C)/C=C(\C)[C@@H]1OC(N)=O)C2=O [Compound #981]
IC50 (HSP90 (bis-ANS treated)): 5.5 µM

CO[C@H]1/C=C\C=C(/C)C(=O)NC2=CC(=O)C(NC(=O)OCC(C)C)=C(C[C@@H](C)C[C@H](OC)[C@H](O)[C@@H](C)/C=C(\C)[C@@H]1OC(N)=O)C2=O [Compound #749]
TI (therapeutic index, TC50/IC50) (HIV-1ROJO): 56.0
IC50 (HIV-1ROJO): 0.02 µM
CC50 [3]: 1.12 µM

CCCCCC(=O)O[C@@H]1[C@@H](OC)C[C@H](C)CC2=C(NC(=O)c3ccccc3)C(=O)C=C(NC(=O)/C(C)=C/C=C\[C@H](OC)[C@@H](OC(N)=O)/C(C)=C/[C@@H]1C)C2=O [Compound #985]
IC50 (HSP90 (bis-ANS treated)): 12 µM

COC1/C=C\C=C(/C)C(=O)NC2=CC(=O)C(NC(=O)c3snnc3C)=C(CC(C)CC(OC)C(O)C(C)/C=C(\C)C1OC(N)=O)C2=O (stereo not shown)
melting point: 157 to 159 °C

COC1/C=C\C=C(/C)C(=O)NC2=CC(=O)C(NC(=O)NCc3ccc(F)cc3)=C(CC(C)CC(OC)C(O)C(C)/C=C(\C)C1OC(N)=O)C2=O (stereo not shown)
melting point: 175 to 177 °C

COC1/C=C\C=C(/C)C(=O)NC2=CC(=O)C(NC(=O)c3ccncc3)=C(CC(C)CC(OC)C(O)C(C)/C=C(\C)C1OC(N)=O)C2=O (stereo not shown) [Compound #530, 17-isonicotinoyl-aminogeldanamycin]
IC50 (Her-2): 100 nM
melting point: 167 to 169 °C
solubility [2]: > 2000 µg/mL

CO[C@H]1/C=C\C=C(/C)C(=O)NC2=CC(=O)C(NC(=O)c3ccccc3)=C(C[C@@H](C)C[C@H](OC)[C@@H](OC(=O)Cc3cccs3)[C@@H](C)/C=C(\C)[C@@H]1OC(N)=O)C2=O [Compound #984]
IC50 (HSP90 (bis-ANS treated)): 4.2 µM

CCOP(=O)(NCCCCNC1=C2CC(C)CC(OC)C(O)C(C)/C=C(\C)C(OC(N)=O)C(OC)/C=C\C=C(/C)C(=O)NC(=CC1=O)C2=O)OCC (stereo not shown)
melting point: 94.8 to 96.2 °C

COC1/C=C\C=C(/C)C(=O)NC2=CC(=O)C(NC(=O)c3c(C)noc3C)=C(CC(C)CC(OC)C(O)C(C)/C=C(\C)C1OC(N)=O)C2=O (stereo not shown)
melting point: 190 to 192 °C

COC1/C=C\C=C(/C)C(=O)NC2=CC(=O)C(NC(=O)c3cc(C)nn3C)=C(CC(C)CC(OC)C(O)C(C)/C=C(\C)C1OC(N)=O)C2=O (stereo not shown)
melting point: 193 to 195 °C

CO[C@H]1/C=C\C=C(/C)C(=O)NC2=CC(=O)C(NC(=O)OCc3ccc(OC(C)=O)cc3)=C(C[C@@H](C)C[C@H](OC)[C@H](O)[C@@H](C)/C=C(\C)[C@@H]1OC(N)=O)C2=O [Compound #709]
IC50 (rHsp90 (low affinity)): 1500 nM
ratio [1]: 167
IC50 [1]: 9 nM

CO[C@H]1/C=C\C=C(/C)C(=O)NC2=CC(=O)C(NC(=O)c3ccccc3)=C(C[C@@H](C)C[C@H](OC)[C@@H](OC(=O)/C=C/c3cccs3)[C@@H](C)/C=C(\C)[C@@H]1OC(N)=O)C2=O [Compound #982]
IC50 (HSP90 (bis-ANS treated)): 5.5 µM

COC1C=CC=C(C)C(=O)NC2=CC(=O)C(NCCCN3CCN(CCCNC4=C5CC(C)CC(OC)C(O)C(C)C=C(C)C(OC(N)=O)C(OC)C=CC=C(C)C(=O)NC(=CC4=O)C5=O)CC3)=C(CC(C)CC(OC)C(O)C(C)C=C(C)C1OC(N)=O)C2=O (stereo not shown) [Compound #207]
IC50 (Her-2): 12 nM
melting point: 162 °C
solubility [2]: ≥ 13000 µg/mL

COC1/C=C\C=C(/C)C(=O)NC2=CC(=O)C(c3cccs3)=C(CC(C)CC(OC)C(O)C(C)/C=C(\C)C1OC(N)=O)C2=O (stereo not shown) [Compound #232, 17-(2-thiophen)-geldanamycin]
IC50 (Her-2): 80 nM
solubility [2]: < 10 µg/mL

CO[C@H]1/C=C\C=C(/C)C(=O)NC2=CC(=O)C(NC(=O)c3ccccc3)=C(C[C@@H](C)C[C@H](OC)[C@@H](OC(=O)Cc3ccccc3)[C@@H](C)/C=C(\C)[C@@H]1OC(N)=O)C2=O [Compound #983]
IC50 (HSP90 (bis-ANS treated)): 7 µM

C=CCO/N=C1/[C@@H](OC)C[C@H](C)CC2=C(NC(=O)c3ccccc3)C(=O)C=C(NC(=O)/C(C)=C/C=C\[C@H](OC)[C@@H](OC(N)=O)/C(C)=C/[C@@H]1C)C2=O (stereo in doubt) [Compound #1011]
TI (therapeutic index, TC50/IC50) (HIV-1ROJO): 14.5
IC50 (HIV-1ROJO): 0.2 µM
IC50 (HSP90 (bis-ANS treated)): 5 µM
CC50 [3]: 2.9 µM

CO[C@H]1/C=C\C=C(/C)C(=O)NC2=CC(=O)C(NC(=O)c3ccc(CN(C)C)cc3)=C(C[C@@H](C)C[C@H](OC)[C@H](O)[C@@H](C)/C=C(\C)[C@@H]1OC(N)=O)C2=O [Compound #687, 17-(4-dimethylaminomethyl-benzoyl)-aminogeldanamycin]
melting point: 203 to 206 °C
IC50 (rHsp90 (low affinity)): 2000 nM
ratio [1]: 250
IC50 [1]: 8 nM

COC1/C=C\C=C(/C)C(=O)NC2=CC(=O)C(NC(=O)c3ccccc3)=C(CC(C)CC(OC)C(O)C(C)/C=C(\C)C1OC(N)=O)C2=O (stereo not shown) [Compound #563, 17-(benzoyl)-aminogeldanamycin]
melting point: 218 to 220 °C
IC50 (rHsp90 (low affinity)): 4500 nM
ratio [1]: 90
IC50 [1]: 50 nM
tumor growth in SKOV-3 xenograft (SKOV-3 ovarian xenograft): suppressed tumor growth almost completely

CCO/N=C1/[C@@H](OC)C[C@H](C)CC2=C(NC(=O)c3ccccc3)C(=O)C=C(NC(=O)/C(C)=C/C=C\[C@H](OC)[C@@H](OC(N)=O)/C(C)=C/[C@@H]1C)C2=O (stereo in doubt) [Compound #1013]
IC50 (HSP90 (bis-ANS treated)): 5.2 µM

COC1/C=C\C=C(/C)C(=O)NC2=CC(=O)C(c3ccccc3)=C(CC(C)CC(OC)C(O)C(C)/C=C(\C)C1OC(N)=O)C2=O (stereo not shown) [Compound #133, 17-phenyl-geldanamycin]
IC50 (Her-2): 25 nM
solubility [2]: < 10 µg/mL

C=CCNC1=C2C[C@@H](C)C[C@H](OC)[C@H](O)[C@@H](C)/C=C(\C)[C@H](OC(N)=O)[C@@H](OC)/C=C\C=C(/C)C(=O)NC(=CC1=O)C2=O [Compound 17-AAG, 17-allyl amino geldanamycin, reference compound]
IC50 (Her-2): 5 nM
IC50 (HIV-1ROJO): 0.38 µM
solubility [2]: < 10 µg/mL
CC50 [3]: 2.02 µM
